Experimental data: patent US20240207302A1, “ANTIVIRAL COMPOUNDS, METHODS FOR THE MANUFACTURING OF COMPOUNDS, ANTIVIRAL PHARMACEUTICAL COMPOSITION, USE OF THE COMPOUNDS AND METHOD FOR THE ORAL TREATMENT OF CORONAVIRUS INFECTION AND RELATED DISEASES THEREOF” (priority 2021, published 2024)
Marks after values point to notes of the source that are not given here.

How the values were obtained:
[1] = Cytotoxicity assay (XTT) in Calu-3 cells; format: cell-based, human; conditions: human, Calu-3 cells, Table 6
Description: In parallel, cytotoxicity assays were performed.

SARS-COV-2 = assay: Combination with SARS-COV-2 nsp14 (exonuclease) inhibitors in Calu-3 cells, infectious virus titers; format: cell-based
[2] = Repeated dose 28-day oral toxicity study; format: in vivo, mice
Description: FIG. 10A and 10B. […] Body weight gain in weeks (A) in males and (B) in females by 4 weeks. […] Body weight was measured once a week.
These experiments were conducted in compliance with the GLP principles. Morbidity, mortality, body weight in male (FIG. 10A) and female (FIG. 10B), food consumption as well as general and detailed clinical signs were evaluated. In the last week, urine samples from all animals were collected for analysis. At necropsy, blood samples were collected for hematological, biochemical and coagulation analyses, followed by tissue and organ collection for macroscopic and histopathological analyses.

[3] = target: human ERG potassium channel (ether-a-gogo-related gene, Kv11.1) (Homo sapiens, UniProt Q12809); assay: hERG FLIPR Potassium assay in HEK293 cells; conditions: up to 300 μM
[4] = Severe acute respiratory syndrome coronavirus 2, Calu-3, alone or in combination as labelled
[5] = female mice, 10 mg/kg oral once daily for 28 days
[6] = female mice, 80 mg/kg oral once daily for 28 days
[7] = female mice, 250 mg/kg oral once daily for 28 days
[8] = female mice, 10 mg/kg daily, 28 days
[9] = female mice, 80 mg/kg daily, 28 days
[10] = female mice, 250 mg/kg daily, 28 days
[11] = male mice, 10 mg/kg daily, 28 days
[12] = male mice, 80 mg/kg daily, 28 days
[13] = male mice, 250 mg/kg daily, 28 days

Chain of human ERG potassium channel (ether-a-gogo-related gene, Kv11.1) (Q12809 whole entry): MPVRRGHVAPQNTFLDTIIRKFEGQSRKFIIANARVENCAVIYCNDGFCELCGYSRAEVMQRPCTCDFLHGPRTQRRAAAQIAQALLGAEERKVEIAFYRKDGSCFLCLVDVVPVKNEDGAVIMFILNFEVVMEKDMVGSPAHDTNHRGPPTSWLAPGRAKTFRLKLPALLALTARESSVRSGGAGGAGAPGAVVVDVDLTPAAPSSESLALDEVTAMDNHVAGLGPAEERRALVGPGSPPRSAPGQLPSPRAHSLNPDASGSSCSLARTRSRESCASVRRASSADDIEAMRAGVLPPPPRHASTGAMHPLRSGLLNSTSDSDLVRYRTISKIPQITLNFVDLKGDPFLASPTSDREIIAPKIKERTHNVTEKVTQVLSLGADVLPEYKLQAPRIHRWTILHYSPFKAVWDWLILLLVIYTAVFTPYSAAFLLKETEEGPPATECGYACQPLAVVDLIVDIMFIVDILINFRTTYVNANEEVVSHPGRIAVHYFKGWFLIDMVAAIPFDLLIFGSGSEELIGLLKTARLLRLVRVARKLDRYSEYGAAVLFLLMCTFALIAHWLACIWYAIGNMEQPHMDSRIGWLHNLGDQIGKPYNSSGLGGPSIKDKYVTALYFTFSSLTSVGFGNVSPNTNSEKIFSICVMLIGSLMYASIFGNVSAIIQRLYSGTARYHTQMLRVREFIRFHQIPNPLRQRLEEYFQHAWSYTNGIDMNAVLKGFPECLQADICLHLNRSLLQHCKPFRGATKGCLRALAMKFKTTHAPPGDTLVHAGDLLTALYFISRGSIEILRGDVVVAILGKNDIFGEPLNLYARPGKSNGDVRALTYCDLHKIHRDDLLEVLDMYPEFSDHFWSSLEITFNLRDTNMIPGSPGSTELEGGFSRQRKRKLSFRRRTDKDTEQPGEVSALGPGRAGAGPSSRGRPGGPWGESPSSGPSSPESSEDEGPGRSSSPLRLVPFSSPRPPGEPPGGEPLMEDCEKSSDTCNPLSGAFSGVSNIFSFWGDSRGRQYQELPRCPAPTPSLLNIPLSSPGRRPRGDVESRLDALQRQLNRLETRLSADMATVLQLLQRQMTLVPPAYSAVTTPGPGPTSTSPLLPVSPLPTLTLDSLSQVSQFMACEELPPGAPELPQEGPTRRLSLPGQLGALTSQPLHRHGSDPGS

## c1coc(CNc2ncnc3[nH]cnc23)c1 [MB-905, kinetin]
[1]; Calu-3, daily treatment
  CC50 at 3 days: 538 µM
[1]; Calu-3, single treatment
  CC50 at 3 days: 620 µM
SARS-COV-2; [4]
  EC50: 0.3 µM
  EC90: 8 µM
SARS-COV-2; calu-3, drug 10 μM, raltegravir or dolutegravir 5 μM
  effect of co-treatment with raltegravir or dolutegravir (iEXO) on inhibition of SARS-COV-2: synergistic
[2]; both sexes, CD1, mouse, in vivo, mice, oral, 28-day study
  NOAEL at 28 days: 80 mg/kg
[2]; [5]
  ALB (Albumin), Mean: 2.67 g/dL
  ALT (Alanine aminotransferase), Mean: 43.72 U/L
  AST (Aspartate Aminotransferase), Mean: 91.88 U/L
  BT (Total Bilirubin), Mean: 0.39 mg/dL
  CA (Calcium), Mean: 9.77 mg/dL
  CRE (Creatinine), Mean: 0.29 mg/dL
  CT (Total cholesterol), Mean: 98.17 mg/dL
  FA (Alkaline phosphatase), Mean: 108.75 U/L
  GGT (Gamma-glutamyltransferase), Mean: 0.00 U/L
  GLUCOSE, Mean: 118.56 mg/dL
  P (Phosphorus), Mean: 4.69 mg/dL
  PT (Total protein), Mean: 5.84 g/dL
  TRI (Triglycerides), Mean: 62.00 mg/dL
  UREIA, Mean: 54.93 mg/dL
[2]; [6]
  ALB (Albumin), Mean: 2.91 g/dL
  ALT (Alanine aminotransferase), Mean: 52.50 U/L
  AST (Aspartate Aminotransferase), Mean: 119.73 U/L
  BT (Total Bilirubin), Mean: 0.41 mg/dL
  CA (Calcium), Mean: 8.34 mg/dL
  CRE (Creatinine), Mean: 0.25 mg/dL
  CT (Total cholesterol), Mean: 119.86 mg/dL
  FA (Alkaline phosphatase), Mean: 77.20 U/L
  GGT (Gamma-glutamyltransferase), Mean: 0.00 U/L
  GLUCOSE, Mean: 138.04 mg/dL
  P (Phosphorus), Mean: 5.47 mg/dL
  PT (Total protein), Mean: 5.99 g/dL
  TRI (Triglycerides), Mean: 92.90 mg/dL
  UREIA, Mean: 44.12 mg/dL
[2]; [7]
  ALB (Albumin), Mean: 3.29 g/dL
  ALT (Alanine aminotransferase), Mean: 44.84 U/L
  AST (Aspartate Aminotransferase), Mean: 127.67 U/L
  BT (Total Bilirubin), Mean: 0.34 mg/dL
  CA (Calcium), Mean: 10.26 mg/dL
  CRE (Creatinine), Mean: 0.30 mg/dL
  CT (Total cholesterol), Mean: 126.67 mg/dL
  FA (Alkaline phosphatase), Mean: 80.40 U/L
  GGT (Gamma-glutamyltransferase), Mean: 0.20 U/L
  GLUCOSE, Mean: 135.84 mg/dL
  P (Phosphorus), Mean: 5.44 mg/dL
  PT (Total protein), Mean: 6.79 g/dL
  TRI (Triglycerides), Mean: 108.33 mg/dL
  UREIA, Mean: 73.50 mg/dL
[2]; [8]
  HCT: 40.60%
  HGB: 13.58 g/dL
  MCH: 17.51 pg
  MCHC: 31.74 g/dL
  MCV: 52.32 fL
  PLT: 1.07322e+06 µL⁻¹
  RBC: 7.76e+06 µL⁻¹
  W-LCR: 36.41%
  W-MCR: 5.03%
  W-SCR: 57.60%
  WBC: 1700 µL⁻¹
[2]; [9]
  HCT: 39.78%
  HGB: 13.31 g/dL
  MCH: 17.50 pg
  MCHC: 33.47 g/dL
  MCV: 52.32 fL
  PLT: 918000 µL⁻¹
  RBC: 7.61e+06 µL⁻¹
  W-LCR: 21.77%
  W-MCR: 2.77%
  W-SCR: 74.94 * %
  WBC: 3590 µL⁻¹
[2]; [10]
  HCT: 40.70%
  HGB: 13.27 g/dL
  MCH: 17.46 pg
  MCHC: 33.03 g/dL
  MCV: 52.80 fL
  PLT: 780330 µL⁻¹
  RBC: 7.61e+06 µL⁻¹
  W-LCR: 22.91%
  W-MCR: 3.10%
  W-SCR: 73.06%
  WBC: 4.88* ×10^3/μL
[2]; [11]
  ALT: 43.99 U/L
  AST: 105.30 U/L
  BT: 0.67 mg/dL
  CA: 9.91 mg/dL
  CRE: 0.37 mg/dL
  CT: 137.00 mg/dL
  FA: 103.67 U/L
  GGT: 2.33 U/L
  GLUCOSE: 127.41 mg/dL
  HCT: 38.33%
  HGB: 12.51 g/dL
  MCH: 17.12 pg
  MCHC: 32.69 g/dL
  MCV: 52.46 fL
  PLT: 971900 µL⁻¹
  PT: 5.56 g/dL
  RBC: 7.3e+06 µL⁻¹
  TRI: 94.50 mg/dL
  UREIA: 60.48 mg/dL
  W-LCR: 40.81 * %
  W-MCR: 5.41%
  W-SCR: 51.88 * %
  WBC: 1610 µL⁻¹
[2]; [12]
  ALT: 69.54 U/L
  AST: 134.48 U/L
  BT: 0.25 mg/dL
  CA: 9.76 mg/dL
  CRE: 0.28 mg/dL
  CT: 154.56 mg/dL
  FA: 69.67 U/L
  GGT: 0.00 U/L
  GLUCOSE: 129.24 mg/dL
  HCT: 38.59%
  HGB: 12.64 g/dL
  MCH: 17.34 pg
  MCHC: 32.76 g/dL
  MCV: 53.00 fL
  PLT: 1.03444e+06 µL⁻¹
  PT: 5.74 g/dL
  RBC: 7.28e+06 µL⁻¹
  TRI: 116.7 mg/dL
  UREIA: 30.02 * mg/dL
  W-LCR: 16.37 * %
  W-MCR: 3.36 * %
  W-SCR: 79.52 * %
  WBC: 4700 µL⁻¹
[2]; [13]
  ALT: 57.17 U/L
  AST: 124.78 U/L
  BT: 0.43 mg/dL
  CA: 10.38 mg/dL
  CRE: 0.31 mg/dL
  CT: 183.56 mg/dL
  FA: 85.88 U/L
  GGT: 0.50 U/L
  GLUCOSE: 105.23 mg/dL
  HCT: 40.41%
  HGB: 13.26 g/dL
  MCH: 17.03 pg
  MCHC: 32.80 g/dL
  MCV: 51.91 fL
  PLT: 1.05633e+06 µL⁻¹
  PT: 5.22 g/dL
  RBC: 7.79e+06 µL⁻¹
  TRI: 84.90 mg/dL
  UREIA: 74.16 mg/dL
  W-LCR: 20.89 * %
  W-MCR: 4.17%
  W-SCR: 74.40* %
  WBC: 4110 µL⁻¹
[2]; mice, both sexes, 250 mg/kg
  histopathology, kidneys: areas of basophilic proximal tubules and tubular dilatation
[2]; mice, either sex, 250 mg/kg
  ophthalmological health: No changes
[2]; mice, male and female, 28 days, main groups
  biochemical and hematological parameters: slight changes
[2]; mice, 10 mg/kg and 80 mg/kg, recovery group
  histopathology, kidneys: not observed
[2]; mice, 28 days
  macroscopic evaluation at necropsy: did not reveal significant changes
[2]; mice, 28 days, main groups
  urine parameters (volume, specific gravity, pH, protein): No significant changes
[3]
  inhibition of potassium permeation through the hERG channel: about 20%
